# Results reported in patent publication US9085562B2, “6-alkyl-N-(pyridin-2-yl)-4-aryloxypicolinamide analogs as mGluR5 negative allosteric modulators and methods of making and using the same” (Vanderbilt University, priority 2011, dated 2015).
# Biological target: T1, rat mGluR5 (Rattus norvegicus, UniProt P31424)
# T1 construct: expressed in transfected cells
# Assay: mGluR5 calcium mobilization assay (HEK 293A cells, FDSS)
# Type: cell-based
# Settings: HEK cells transfected with rat mGluR5; antagonism of glutamate EC80 response; Table 1
# Description: Human embryonic kidney (HEK) cells transfected with rat or human mGluR5 were plated in clear bottom assay plates for assay in a Functional Drug Screening System (FDSS). The cells were loaded with a Ca2+-sensitive fluorescent dye (e.g., Fluo-4), and the plates were washed and placed in the FDSS instrument. Test compound was applied to cells 3 seconds after baseline readings were taken. Cells were incubated with the test compounds for 140 seconds and then stimulated with an EC20 concentration of an mGluR5 agonist (e.g., glutamate, 3,5-dihydroxyphenylglycine, or quisqualate); 60-80 seconds later an EC80 concentration of agonist was added and readings taken for an additional 40 seconds. Data were collected at 1 Hz. […] Concentration response curves were generated using a four parameter logistical equation.
# The above described assay was operated in two modes. In the first mode (utilizing a triple add protocol), a range of concentrations of the present compounds were added to cells, followed by two single fixed concentrations of agonist (EC20 followed by EC80). If a compound acted as a potentiator, an EC50 value for potentiation of the EC20 response and a maximum extent of potentiation by the compound at this concentration of agonist was determined by non-linear curve fitting. If a compound acted as an antagonist, an IC50 value for antagonism of the EC80 response and a maximum extent of antagonism by the compound at this concentration of agonist was determined by non-linear curve fitting. In the second mode (utilizing a double add protocol), several fixed concentrations of the present compounds were added to various wells on a plate, followed by a range of concentrations of agonist for each concentration of present compound; the EC50 values for the agonist at each concentration of compound were determined by nonlinear curve fitting. A decrease in the EC50 value of the agonist with increasing concentrations of the present compounds (a leftward shift of the agonist concentration-response curve) is an indication of the degree of mGluR5 positive allosteric modulation at a given concentration of the present compound. An increase in the EC50 value of the agonist with increasing concentrations of the present compounds (a rightward shift of the agonist concentration response curve) is an indication of the degree of mGluR5 antagonism at a given concentration of the present compound. The second mode also indicates whether the present compounds also affect the maximum response to mGluR5 to agonists.
# The mGluR5 activity was determined using the metabotropic glutamate receptor activity assays in human embryonic kidney cells as described herein, wherein the human embryonic kidney cells were transfected with rat mGluR5. The mGluR5 activity data for some compounds are shown as the average of at least three experiments with the standard error in these cases. If no error is indicated for the mGluR5 activity, the values given represent the results from a single experiment or the average of two experiments. The compounds in Table 1 were synthesized with methods identical or analogous to those shown herein. The requisite starting materials were commercially available, described in the literature, or readily synthesized by one skilled in the art of organic synthesis.
# The cells were grown overnight at 37° C. in the presence of 5% CO2. […] Dye was removed, 20 μL of assay buffer was added, and the plate was incubated for 10 minutes at room temperature.
# Ca^2+ flux was measured using the Functional Drug Screening System (FDSS6000, Hamamatsu, Japan). After establishment of a fluorescence baseline for about 3 seconds, the compounds of the present invention were added to the cells, and the response in cells was measured.
# T1 sequence (P31424 21-1171 isoform P31424-2 limits assumed): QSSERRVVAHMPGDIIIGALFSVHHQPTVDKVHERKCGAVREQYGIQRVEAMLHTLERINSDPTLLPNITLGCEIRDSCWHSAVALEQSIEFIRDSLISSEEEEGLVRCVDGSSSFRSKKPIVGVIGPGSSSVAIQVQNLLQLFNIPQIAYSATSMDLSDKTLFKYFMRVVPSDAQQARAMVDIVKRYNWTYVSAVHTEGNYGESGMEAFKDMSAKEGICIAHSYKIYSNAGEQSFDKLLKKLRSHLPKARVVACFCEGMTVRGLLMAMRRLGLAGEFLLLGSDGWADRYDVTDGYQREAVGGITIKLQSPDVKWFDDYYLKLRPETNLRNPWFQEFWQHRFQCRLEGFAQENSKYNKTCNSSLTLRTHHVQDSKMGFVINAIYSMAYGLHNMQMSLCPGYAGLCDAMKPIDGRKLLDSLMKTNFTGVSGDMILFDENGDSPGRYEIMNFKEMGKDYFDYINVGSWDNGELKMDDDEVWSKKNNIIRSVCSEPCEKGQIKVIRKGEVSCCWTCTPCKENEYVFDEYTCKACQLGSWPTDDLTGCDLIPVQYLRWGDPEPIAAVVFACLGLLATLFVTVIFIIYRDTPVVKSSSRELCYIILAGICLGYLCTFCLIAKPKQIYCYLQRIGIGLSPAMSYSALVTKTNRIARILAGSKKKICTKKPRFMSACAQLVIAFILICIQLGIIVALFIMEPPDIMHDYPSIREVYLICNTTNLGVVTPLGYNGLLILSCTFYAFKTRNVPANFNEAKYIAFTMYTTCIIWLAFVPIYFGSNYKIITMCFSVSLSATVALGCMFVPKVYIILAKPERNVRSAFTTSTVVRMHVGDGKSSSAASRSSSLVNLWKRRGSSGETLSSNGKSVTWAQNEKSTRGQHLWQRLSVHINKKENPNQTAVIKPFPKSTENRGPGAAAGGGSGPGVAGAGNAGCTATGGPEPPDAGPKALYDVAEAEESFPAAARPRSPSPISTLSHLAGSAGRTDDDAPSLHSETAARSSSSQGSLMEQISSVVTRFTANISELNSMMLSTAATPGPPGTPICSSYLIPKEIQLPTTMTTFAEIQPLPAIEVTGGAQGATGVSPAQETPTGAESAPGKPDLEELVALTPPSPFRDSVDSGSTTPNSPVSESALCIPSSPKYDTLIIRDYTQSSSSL
row,IC50,SMILES
1,1890 nM,Cc1cc(Oc2cnc(C)nc2)cc(C(=O)Nc2cc(F)ccn2)n1
2,20 nM,Cc1cccc(NC(=O)c2cc(Oc3cnc(C)nc3)cc(C)n2)n1
3,21 nM,Cc1cc(Oc2cnc(C)nc2)cc(C(=O)Nc2cccc(F)n2)n1
4,209 nM,Cc1cc(Oc2cnc(C)nc2)cc(C(=O)Nc2ccc(Cl)cn2)n1
5,255 nM,Cc1cc(Oc2ccc(C(F)(F)F)nc2)cc(C(=O)Nc2ccc(F)cn2)n1
6,4880 nM,Cc1cc(Oc2ccc(C(F)(F)F)nc2)cc(C(=O)Nc2cc(F)ccn2)n1
7,177 nM,Cc1cccc(NC(=O)c2cc(Oc3ccc(C(F)(F)F)nc3)cc(C)n2)n1
8,397 nM,Cc1cc(Oc2ccc(C(F)(F)F)nc2)cc(C(=O)Nc2cccc(F)n2)n1
9,> 30000 nM,Cc1cc(Oc2ccc(C(F)(F)F)nc2)cc(C(=O)Nc2ccc(Cl)cn2)n1
10,172 nM,Cc1ccc(Oc2cc(C)nc(C(=O)Nc3cccc(Cl)n3)c2)cn1
11,693 nM,Cc1ccc(Oc2cc(C)nc(C(=O)Nc3ccc(C#N)cn3)c2)cn1
12,> 30000 nM,Cc1ccc(Oc2cc(C)nc(C(=O)Nc3ccc(C(F)(F)F)cn3)c2)cn1
13,18 nM,Cc1cc(Oc2cncc(Cl)c2)cc(C(=O)Nc2ccc(Cl)cn2)n1
14,14 nM,Cc1cc(Oc2cncc(Cl)c2)cc(C(=O)Nc2cccc(Cl)n2)n1
15,11 nM,Cc1cc(Oc2cncc(Cl)c2)cc(C(=O)Nc2ccc(C#N)cn2)n1
16,14 nM,Cc1cc(Oc2cncc(Cl)c2)cc(C(=O)Nc2ccc(F)c(C)n2)n1
17,14 nM,CCc1cccc(NC(=O)c2cc(Oc3cncc(Cl)c3)cc(C)n2)n1
18,> 10000 nM,Cc1cc(Oc2cncc(Cl)c2)cc(C(=O)Nc2ccc(C(F)(F)F)cn2)n1
19,6.1 nM,CCc1cc(Oc2cncnc2)cc(C(=O)Nc2cccc(C)n2)n1
20,11 nM,CCc1cc(Oc2cncc(F)c2)cc(C(=O)Nc2ccc(F)cn2)n1
21,14 nM,CCc1cc(Oc2cncnc2)cc(C(=O)Nc2cccc(Cl)n2)n1
22,41 nM,CCc1cc(Oc2cncc(F)c2)cc(C(=O)Nc2ccc(C)cn2)n1
23,468 nM,CCc1cccc(NC(=O)c2cc(Oc3cncc(F)c3)cc(CC)n2)n1

row,IC50,SMILES
1,333 nM,CCc1cc(Oc2cncc(F)c2)cc(C(=O)Nc2cc(F)ccn2)n1
2,333 nM,CCc1cc(Oc2cncc(F)c2)cc(C(=O)Nc2ccc(Cl)cn2)n1
3,59 nM,CCc1cc(Oc2cncc(F)c2)cc(C(=O)Nc2cccc(Cl)n2)n1
4,156 nM,CCc1cc(Oc2cncnc2)cc(C(=O)Nc2ccc(C#N)cn2)n1
5,27 nM,CCc1cc(Oc2cncnc2)cc(C(=O)Nc2ccc(F)c(C)n2)n1
6,24 nM,CCc1cc(Oc2cncnc2)cc(C(=O)Nc2cccc(F)n2)n1
7,677 nM,CCc1cc(Oc2cncnc2)cc(C(=O)Nc2cc(C)c(F)cn2)n1
8,13 nM,CCc1cc(Oc2cncc(F)c2)cc(C(=O)Nc2cccc(C)n2)n1
9,108 nM,CCc1cc(Oc2cncc(F)c2)cc(C(=O)Nc2ccc(C#N)cn2)n1
10,19 nM,CCc1cccc(NC(=O)c2cc(Oc3cncnc3)cc(CC)n2)n1
11,159 nM,CCc1cc(Oc2cncc(F)c2)cc(C(=O)Nc2ccc(F)c(C)n2)n1
12,9.3 nM,CCc1cc(Oc2cncnc2)cc(C(=O)Nc2ccc(F)cn2)n1
13,27 nM,CCc1cc(Oc2cncnc2)cc(C(=O)Nc2ccc(C)cn2)n1
14,> 30000 nM,CCc1cc(Oc2cncc(F)c2)cc(C(=O)Nc2cc(C)c(F)cn2)n1
15,25 nM,CCc1cc(Oc2cncnc2)cc(C(=O)Nc2ccc(Cl)cn2)n1
16,18 nM,CCc1cc(Oc2cncc(F)c2)cc(C(=O)Nc2cccc(F)n2)n1
17,8.2 nM,Cc1cc(Oc2cncc(F)c2)cc(C(=O)Nc2cccc(Cl)n2)n1
18,> 30000 nM,CCc1cc(Oc2cncnc2)cc(C(=O)Nc2ccc(C(F)(F)F)cn2)n1
19,> 30000 nM,CCc1cc(Oc2cncc(F)c2)cc(C(=O)Nc2ccc(C(F)(F)F)cn2)n1
20,2.2 nM,Cc1cc(Oc2cncc(Cl)c2)cc(C(=O)Nc2ccccn2)n1
21,72 nM,Cc1ccc(NC(=O)c2cc(Oc3cncnc3)cc(C(F)F)n2)nc1
22,6.8 nM,Cc1ccc(NC(=O)c2cc(Oc3cncc(F)c3)cc(C)n2)nc1
